Measurements as given in patent US20230002389A1, “ADENINE ANALOGS, PRODRUGS, DERIVATIVES, COMPOSITIONS AND USES THEREOF” (priority 2021, published 2023).
“And” between values parts separate entries of the source, which are not always exact repeats. Identical values can stand only once. Like-named read-outs stand apart in the source and are kept apart here.

Assays:
[1] = system: Homer 1a; assay: Quantitative real-time PCR analysis of brain tissue after oral gavage of T1-1; assay type: in vivo, Male CD1 mice; conditions: PO(2 h); for % Vehicle Mean: group mean of 3 mice; for % Vehicle Average / % Vehicle n = 1 / % Vehicle n = 2 / Relative mRNA expression (2^(−ΔCt)) Average / Relative mRNA expression(2^(−ΔCt)) n = 1 / Relative mRNA expression(2^(−ΔCt)) n = 2: individual mice M31-M33
Description: Quantitative Real-Time PCR Analysis
Male CD1 mice were administered vehicle and test compound (T1-1) by oral gavage. After 2 hours, the were decapitated, and their brain samples were collected. Total RNA from the brain tissue were isolated using […], RNA integrity was confirmed, and the concentration was quantified by measuring the optical density. Reverse transcription was performed (Invitrogen) for cDNA synthesis according to the manufacturer's instructions. Real-time qPCR was performed on Real-Time PCR System using SYBR Green. The amplification reactions were performed as per the supplier's protocol.

[2] = Pharmacokinetic analysis of T1-1 as a prodrug of MRS5474: plasma PK in mice after i.v. and p.o. dosing; assay type: in vivo, Male CD-1 mice; parameters: AUClast/D: unit not given here; conditions: CD-1 mice; for MRT inf: read-out: MRTInf_obs
Description: Pharmacokinetic Analysis of Compound T1-1 for Determination Utility as a Prodrug of MRS5474:
The dosing formulation (for i.v.) of T1-1 for mouse PK studies were prepared as 0.27 mg/mL solution of 10% DMSO+50% PEG400+40% WATER (Dissolved 1.19 mg of T1-1 in 0.441 mL of DMSO with vortexing and sonication, then added 2.204 mL of PEG400 and 1.763 mL of H2O with vortexing to obtain a solution). The dosing formulation (for p.o.) of T1-1 for mouse PK studies were prepared 2.71 mg/mL solution of 10% DMSO+50% PEG400+40% WATER (Dissolved 10.17 mg of in 0.375 mL of DMSO with vortexing and sonication, then added 1.876 mL […] of PEG400 and 1.501 mL of H2O with vortexing to obtain a solution.)
Animals: Male CD-1 mice (6-8 weeks of age), weighing 20-22 g; all animals were allowed to acclimate to this environment for one week prior to experimental manipulations.
Study Design: Study design The CD1 mice were given a single dose of T1-1 by bodyweight via intravenous (i.v.), or via oral gavage (p.o) administration. The blood and brain tissue samples were collected at intervals (h) of 0, 0.5, 1, 2, 4, 8, and 24. (n=3, each time point).
Plasma Sample Preparation: Approximately 0.3 mL blood will be collected at each time point. After collecting the blood at each time point, add 250 to 300 μL of the blood sample to Eppendorf tube containing EDTA solution+10 μL of inhibitor stock and vortexed for 15 minutes and then centrifugation at 4000 g for 5 minutes in a 4° C. centrifuge to obtain plasma.
The desired serial concentrations of working solutions were achieved by diluting a stock solution of the analyte with 50% acetonitiile in water solution. 5 μL of working solutions (5, 10, 20, 50, 100, 500, 1000, 5000, 10000 ng/mL) were added to 50 μL of the blank CD1 Mouse plasma to achieve calibration standards of 0.5-1000 ng/mL (0.5, 1, 2, 5, 10, 50, 100, 500, 1000 ng/mL) in a total volume of 55 μL. Five quality control samples at 1 ng/mL, 2 ng/mL, 5 ng/mL, 50 ng/mL, and 800 ng/mL for plasma were prepared independently of those used for the calibration curves. These QC samples were prepared on the day of analysis in the same way as calibration standards. 55 μL standards, 55 μL QC samples and 55 unknown samples (50 μL plasma with 5 μL blank solution) were added to 200 μL of acetonitrile containing IS mixture for precipitating protein respectively. Then the samples were vortexed for 30 s. After centrifugation at 4 degree Celsius, 3900 rpm for 15 min, the supernatant was diluted 3 times with water. 1 μL of diluted supernatant was injected into the LC/MS/MS system for quantitative analysis using (Shimadzu-DGU-20A5 integrated with AB AP15500 LCMS/MS instrument) with to determine plasma concentrations of T1-1 and the metabolite (parent compound) MRA5474. The data were analyzed for test article T1-1 and the metabolite (parent compound) MRA5474 for PK profile.
The mobile phase consisted of acetonitrile and water mixtures, solution A: 5% acetonitrile (0.1% formic acid) and solution B: 95% acetonitrile (0.1% formic acid) with gradient elution from 90 to 10% solution A over 1.71 min. The flow rate was 0.7 mL/min. YMC Triart C18 5 μm (50×2.1 mm) column was used for the separation of the sample components.
Results: Summary of IV and PO of Plasma Pharmacokinetic Parameters

[3] = IV(plasma), T1-1 dosed 1.35 mg/kg
[4] = IV(plasma), T1-1 dosed 1.35 mg/kg, analyte = label
[5] = PO(plasma), T1-1 dosed 13.55 mg/kg
[6] = male, mouse, IV(plasma), T1-1 dosed 1.35 mg/kg, analyte = label
[7] = male, mouse, IV(plasma), T1-1 dosed 1.35 mg/kg, analyte = label (T1-1 or metabolite MRS5474)
[8] = male, mouse, PO(plasma), T1-1 dosed 13.55 mg/kg, analyte = label

SMILES: O=C(NCN(c1nc(Cl)nc2c1ncn2[C@H]1[C@H](O)[C@H](O)[C@@H]2C[C@@H]21)C(C1CC1)C1CC1)c1ccccc1 [Compound T1-1, N-(((2-chloro-9-((1S,2R,3S,4R,5R)-3,4-dihydroxybicyclo [3.1.0]hexan-2-yl)-9H-purin-6-yl) (dicyclopropylmethyl)amino)methyl) benzamide]
- % Vehicle Mean ([1]; Homer 1a mRNA vs Actin): 112.74%
- % Vehicle Average ([1]; Homer 1a mRNA vs Actin): 131.98% and 104.88% and 101.37%
- % Vehicle n = 1 ([1]; Homer 1a mRNA vs Actin): 123.98% and 96.37% and 100.64%
- % Vehicle n = 2 ([1]; Homer 1a mRNA vs Actin): 139.98% and 113.39% and 102.10%
- % Vehicle Mean ([1]; Homer 1a mRNA vs GAPDH): 66.54%
- % Vehicle Average ([1]; Homer 1a mRNA vs GAPDH): 75.27% and 51.17% and 73.18%
- % Vehicle n = 1 ([1]; Homer 1a mRNA vs GAPDH): 72.27% and 49.10% and 72.10%
- % Vehicle n = 2 ([1]; Homer 1a mRNA vs GAPDH): 78.27% and 53.24% and 74.26%
- Relative mRNA expression (2^(−ΔCt)) Average ([1]; Homer 1a vs Actin): 0.51 and 0.41 and 0.40
- Relative mRNA expression(2^(−ΔCt)) n = 1 ([1]; Homer 1a vs Actin): 0.48 and 0.38 and 0.39
- Relative mRNA expression(2^(−ΔCt)) n = 2 ([1]; Homer 1a vs Actin): 0.55 and 0.44 and 0.40
- Relative mRNA expression (2^(−ΔCt)) Average ([1]; Homer 1a vs GAPDH): 0.1187 and 0.0807 and 0.1154
- Relative mRNA expression(2^(−ΔCt)) n = 1 ([1]; Homer 1a vs GAPDH): 0.1140 and 0.0774 and 0.1137
- Relative mRNA expression(2^(−ΔCt)) n = 2 ([1]; Homer 1a vs GAPDH): 0.1234 and 0.0840 and 0.1171
- AUClast/D [2, 3]: 289.77
- Vss_obs [2, 3]: 1.57 L/kg
- AUC_% Extrap_obs [2, 4]: 0.93%
- Cl_obs [2, 4]: 56.98 mL/min/kg
- AUClast/D [2, 5]: 34.47
- F [2, 5]: 11.90%
- AUC(0-inf) [2, 6]: 395 ng·h/mL
- AUC(0-t) [2, 6]: 391 ng·h/mL
- C0 [2, 6]: 613 ng/mL
- half-life [2, 7]: 0.29 h
- MRT inf [2, 6]: 0.46 h
- AUC(0-t) [2, 8]: 467 ng·h/mL
- Cmax [2, 8]: 132 ng/mL
- Tmax [2, 8]: 0.5 h

SMILES: O[C@@H]1[C@H](O)[C@@H]2C[C@@H]2[C@H]1n1cnc2c(NC(C3CC3)C3CC3)nc(Cl)nc21 [MRS5474, (1R,2R,3S,4R,5S)-4-(2-chloro-6-((dicyclopropylmethyl)amino)-9H-purin-9-yl) bicyclo [3.1.0] hexane-2,3-diol, reference compound]
- AUC_% Extrap_obs [2, 4]: 2.62%
- AUC_% Extrap_obs ([2]; PO(plasma), T1-1 dosed 13.55 mg/kg, analyte = label): 0.08%
- AUC(0-inf) [2, 6]: 321 ng·h/mL
- AUC(0-t) [2, 6]: 313 ng·h/mL
- Cmax [2, 6]: 127 ng/mL
- Tmax [2, 6]: 1 h
- half-life [2, 7]: 1.55 h
- MRT inf [2, 6]: 2.32 h
- AUC(0-inf) [2, 8]: 6990 ng·h/mL
- AUC(0-t) [2, 8]: 6990 ng·h/mL
- Cmax [2, 8]: 522 ng/mL
- Tmax [2, 8]: 1 h
- half-life [2, 8]: 2.32 h
- MRT inf [2, 8]: 6.36 h
